Measured values taken from patent US5882671A, “Anxiolytic agents” (Eli Lilly and Company, priority 1997, dated 1999).
“Also recorded” adds a separate entry of the source. Structures can show the parent of a compound that is named as a salt. Where two headings read alike, the source gives them in different places.

Key:
[1] = tested on: fear potentiated startle response; experiment: fear potentiated startle model of anxiety; assay type: in vivo, Male Long Evans rats; conditions: statement in words
Source text: In the fear potentiated startle model, animals are exposed to a neutral stimulus such as light (conditioned stimulus) with an aversive stimulus such as a shock (unconditioned stimulus). Following conditioning, when the animals are presented with a loud acoustic stimulus, larger startle responses are elicited when the startle stimulus is preceded by light. The difference in amplitude between the startle response when conditioned animals are exposed to the aversive stimulus paired with a neutral stimulus and the startle response when the conditioned animal is exposed only to the aversive stimulus is known as fear potentiated startle. The amplitude of the startle response when the animal is exposed only to the aversive stimulus is known as the baseline startle. Test compounds which are effective in this model decrease the fear potentiated startle response. It is emphasized that what is being determined experimentally is the difference between the startle response with paired stimuli and the baseline startle; test compounds which are anxiolytics may increase, decrease or leave unchanged the baseline startle response. (Davis, TiPS, January 1992 [Vol. 13], 35-41).
(§1) Male Long Evans rats (180-400 g) or male NIH Swiss mice (18-35 g) were obtained from Harlan Sprague-Dawley, Cumberland, Ind., U.S.A. and acclimated at least 3 days before testing. Animals were housed at 23°±2° C. (relative humidity 30% to 70%) and given Purina Certified Rodent Chow and water ad libitum. The photoperiod was 12 hours of light and 12 hours of dark, with dark onset at approximately 1800 hours.
(§2) Test compounds were dissolved in a vehicle of purified water and neutralized with 5N NaOH to a pH of 7-8 when applicable. […] Control animals received the respective vehicle.
SL-LAB (San Diego Instruments, San Diego, Calif.) chambers were used for conditioning sessions and for the production and recording of startle responses. A classical conditioning procedure was used to produce potentiation of startle responses. Briefly, on the first 2 days, rats were placed into dark startle chambers in which shock grids were installed. Following a 5-minute acclimation period, each rat received a 1 mA electric shock (500 ms) preceded by a 5 second presentation of light (15 watt) which remained on for the duration of the shock. Ten presentations of the light and shock were given in each conditioning session, […] A block of 10 consecutive presentations of acoustic startle stimuli (110 dB, non-light-paired) were presented at the beginning of the session in order to minimize the influences of the initial rapid phase of habituation to the stimulus. […]

[2] = tested on: negatively coupled cAMP-linked metabotropic glutamate receptors; experiment: selectivity of agonism at metabotropic glutamate receptors
Source text: As described previously herein, it is preferred to use an agonist which acts selectively at negatively coupled cAMP-linked metabotropic glutamate receptors (relative to other glutamate receptors) in the methods according to the invention. Such an agonist may be a single compound, for example one of the four compounds named hereinabove, or two or more compounds which, in combination function as an agonist which acts selectively at negatively coupled cAMP-linked metabotropic glutamate receptors.

[3] = tested on: natural aversion to height and open spaces; experiment: automated elevated plus maze model of anxiety; assay type: in vivo, male NIH Swiss mice
Description: The elevated plus maze model is based upon the natural aversion of rodents to height and open spaces.
as §1, §2
Construction of the elevated plus-maze was based on a design validated for mice by Lister (1987). The entire maze was made of clear Plexiglas. The maze was comprised of two open arms (30×5×0.25 cm) and two enclosed arms (30×5×15 cm). The floor of each maze arm was corrugated to provide texture. The arms extended from a central platform and angled at 90 degrees from each other. The maze was elevated to a height of 45 cm above the floor and illuminated by red light. Individual infrared photocells were mounted along each arm of the maze to monitor closed, open, or nosepoke activity. Mice were individually placed on the central platform of the maze and the number of closed arm, open arm, and nosepoke (poking head only into open arm from closed arm of maze) counts were recorded and used as a measure of arm entries and time spent on various sections of the maze over a five-minute test period.

[4] = tested on: negatively coupled cAMP-linked metabotropic glutamate receptors; conditions: Schoepp and Johnson, Neuropharmacology Vol. 32; cited from earlier work
[5] = tested on: fear potentiated startle response; conditions: reference anxiolytics, presentation of light, cited from earlier work
[6] = tested on: natural aversion to height and open spaces; conditions: reference anxiolytics, cited from earlier work
[7] = tested on: anxiety disorders; conditions: in vivo; cited from earlier work

With `N[C@]1(C(=O)O)CO[C@@H]2[C@@H](C(=O)O)[C@@H]21` (relative stereo) [1SR,4SR,5RS,6SR-4-amino-2-oxabicyclo[3.1.0]hexane-4,6-dicarboxylic acid] the “efficacy in fear potentiated startle model of anxiety” value [1] was “effective” and the “selectivity as agonist at negatively coupled cAMP-linked metabotropic glutamate receptors” value (“selectivity as agonist” below) [2] was “act selectively as agonists”.
In the case of `N[C@@]1(C(=O)O)CS[C@@H]2[C@H](C(=O)O)[C@@H]21` (relative stereo) [1SR,4SR,5RS,6SR-4-amino-2-thiabicyclo[3.1.0]hexane-4,6-dicarboxylic acid], the “efficacy in fear potentiated startle model of anxiety” value [1] is reported as “effective” and the “selectivity as agonist” value [2] is reported as “act selectively as agonists”.
In the case of `NC1(C(=O)O)CCC2C(C(=O)O)C21` (single isomer, unassigned; (+)) [(+)-2-Aminobicyclo[3.1.0]hexane-2,6-dicarboxylic Acid], the “efficacy in fear potentiated startle model of anxiety” value [1] is reported as “effective”, the Nosepoke counts ([3]; oral, 3 mg/kg, mice, five-minute test period) is reported as “significant increase” and the open arm activity ([3]; oral, 1, 3 and 10 mg/kg, mice, five-minute test period) is reported as “significant increases”. The “Closed arm activity counts” value ([3]; oral, any dose, mice, five-minute test period) was “not significantly altered”, the “efficacy in elevated plus maze model of anxiety” value ([3]; statement in words) was “effective” and the “selectivity as agonist” value [2] was “acts selectively as an agonist”.
For `N[C@@]1(C(=O)O)CO[C@H]2[C@H](C(=O)O)[C@H]21` [1R,4R,5S,6R-4-amino-2-oxabicyclo[3.1.0]hexane-4,6-dicarboxylic acid], the “efficacy in fear potentiated startle model of anxiety” value [1] was “effective” and the “selectivity as agonist” value [2] was “act selectively as agonists”.
For `N[C@@]1(C(=O)O)CC[C@@H](C(=O)O)C1` [1S,3R-1-aminocyclopentane-1,3-dicarboxylic acid], the “action at PI-linked metabotropic glutamate receptors” value [4] is given as “also acts at PI-linked metabotropic glutamate receptors” and the “selectivity at negatively coupled cAMP-linked metabotropic glutamate receptors” value [4] is given as “act non-selectively”.
For `O=C1CC2(CCCC2)CC(=O)N1CCCCN1CCN(c2ncccn2)CC1` [Buspirone hydrochloride, buspirone hydrochloride], the “reduction of fear (increased startle response) in the fear potentiated startle model” value ([5]; hydrochloride) is given as “effective at reducing the fear”, the “reduction of fear of open spaces in the elevated plus maze model” value ([6]; hydrochloride) is given as “effective; also recorded: reducing the fear of open spaces” and the dependence-inducing side effects [7] is given as “lacks the dependence-inducing side effects”.
For `CN1C(=O)CN=C(c2ccccc2)c2cc(Cl)ccc21` [Diazepam], the “reduction of fear (increased startle response) in the fear potentiated startle model” value [5] is listed as “effective at reducing the fear” and the “reduction of fear of open spaces in the elevated plus maze model” value [6] is listed as “reducing the fear of open spaces”.
